Measurements reported in patent US4480118A, “Carboxylic acid ester and an insecticidal and/or acaricidal composition containing the same” (priority 1981, dated 1984).

Legend:
Type in all cases: in vivo
[1] = system: northern house mosquito; assay: Mosquito coil knockdown of adult female northern house mosquitos
Protocol: Each 0.6 g of the present compounds Nos. 10, 16 and 27 is dissolved in 20 ml of methanol and uniformly mixed with 99.4 g of a carrier for mosquito coils (a mixture of Tabu powder, pyrethrum marc and wood powder in a proportion of 3:5:1) by thorough stirring. After evaporation of methanol and addition of 150 ml of water, the mixture is thoroughly kneaded, then molded, and dried to obtain a mosquito coil.
About 50 adult female northern house mosquitos were released into a glass chamber, 70×70×70 cm, and a battery-operated small fan (diameter of rotation of the vane: 13 cm) disposed in the cabinet was operated. A mosquito coil obtained in Preparation Example 6 was ignited at both ends and placed at the center of bottom of the chamber. After 20 minutes, the number of knocked down insects was counted.

[2] = system: northern house mosquito; assay: Activity of oil spray against adult female northern house mosquito (glass chamber); details: for mortality, Northern house mosquito: in vivo, 24 h; for KT50 (50% knockdown time), Northern house mosquito: oil spray 0.5 ml, 10 minutes exposure
Protocol: (§1) 0.1 Part of each compound Nos. 10, 12, 15, 17, 18, 19, 22, 23 and 29 of this invention is dissolved in deodorized kerosene and made up to 100 parts with kerosene to obtain an oil spray.
(§2) Ten adult houseflies and ten adult female northern house mosquitos were released in a glass chamber, 70×70×70 cm in size. An oil spray preparation (0.5 ml) obtained in Preparation Example 1 was sprayed inside the chamber and the insects were exposed to the descending mist for 10 minutes, during which time the number of knocked-down insects was counted at predetermined time intervals to determine the 50% knockdown time (KT50). On the following day, the dead and alive insects were observed.

[3] = system: housefly; assay: Insecticidal activity against housefly (Filter paper bait and contact method); details: Musca domestica; 500 ppm, 48 hours, adult female houseflies; read-out: Mortality
Protocol: Each 20 parts of the present compounds No. 1 to No. 29, 10 parts of an emulsifier (Sorpol 3005X; trademark for Toho Chemical Co.) and 70 parts of xylene are thoroughly mixed by stirring to obtain an emulsifiable concentrate of each compound.
A piece of filter paper, 5.5 cm in diameter, was laid on the bottom of a polyethylene cup of the identical inner diameter. An emulsifiable concentrate prepared in the same manner as in Preparation Example 2 was diluted with water. To the filter paper, was added dropwise 0.7 ml of the diluted sample (500 ppm in concentration). Sucrose (30 mg) was placed on the filter paper to serve as bait. Ten adult female houseflies were released into the cup, closed with a cover, and observed for the number of dead and alive insects after 48 hours to calculate the mortality (2 replications).

[4] = system: housefly; assay: Activity of oil spray against adult housefly (glass chamber); details: oil spray 0.5 ml, 10 minutes exposure; for mortality, House fly: observed on the following day, 1440 min
Protocol: as §1, §2

C#CCC1=C(C)C(OC(=O)C2C(C)(C)C23Cc2ccccc2C3)CC1=O (centres unmarked) [Compound 10]
Percent knocked down insects after 20 minutes [1]: 94% | mortality, Northern house mosquito [2]: 100% | KT50 (50% knockdown time), Northern house mosquito [2]: 320 s | mortality at 500 ppm [3]: 100% | KT50 (50% knockdown time), House fly [4]: 210 s | mortality, House fly [4]: 30%

C=CCC1=C(C)C(OC(=O)C2C(C)(C)C23Cc2ccccc2C3)CC1=O (centres unmarked) [Compound 15]
Percent knocked down insects after 20 minutes [1]: 90% | mortality, Northern house mosquito [2]: 95% | KT50 (50% knockdown time), Northern house mosquito [2]: 300 s | mortality at 500 ppm [3]: 100% | KT50 (50% knockdown time), House fly [4]: 250 s | mortality, House fly [4]: 20%

C#CC(OC(=O)C1C(C)(C)C12Cc1ccc(F)cc1C2)C(C)=CCC (centres unmarked) [Compound 27]
Percent knocked down insects after 20 minutes [1]: 10% | mortality at 500 ppm [3]: 100%
